Earlier results as cited in PMC9781217, “Discovery of Novel and Selective G-Protein Coupled Receptor 120 (GPR120) Agonists for the Treatment of Type 2 Diabetes Mellitus” (Molecules, 2022).

Columns and labels:
[1] = tested on: GPR120; design: method as in ref 15-26 = [15]; PMID 22519963; doi:10.1021/jm300215x; 15. Shimpukade B. Hudson B.D. Hovgaard C.K. Milligan G. Ulven T. Discovery of a potent and selective GPR120 agonist J. Med. Chem. 2012 55 4511 4515 10.1021/jm300215x 22519963 || [16]; PMID 24881566; doi:10.1016/j.bmcl.2014.05.012; 16. Sparks S.M. Chen G. Collins J.L. Danger D. Dock S.T. Jayawickreme C. Jenkinson S. Laudeman C. Leesnitzer M.A. Liang X. Identification of diarylsulfonamides as agonists of the free fatty acid recep || [17]; PMID 27570890; doi:10.1021/acs.jmedchem.6b00685; 17. Azevedo C.M. Watterson K.R. Wargent E.T. Hansen S.V. Hudson B.D. Kepczynska M.A. Dunlop J. Shimpukade B. Christiansen E. Milligan G. Non-Acidic Free Fatty Acid Receptor 4 Agonists with Antidiabeti || [18]; PMID 27815121; doi:10.1016/j.bmcl.2016.10.054; 18. Lombardo M. Bender K. London C. Kirkland M. Mane J. Pachanski M. Geissler W. Cummings J. Habulihaz B. Akiyama T.E. Discovery of benzofuran propanoic acid GPR120 agonists: From uHTS hit to mechanis || [19]; PMID 28105282; doi:10.1021/acsmedchemlett.6b00394; 19. Adams G.L. Velazquez F. Jayne C. Shah U. Miao S. Ashley E.R. Madeira M. Akiyama T.E. Di Salvo J. Suzuki T. Discovery of Chromane Propionic Acid Analogues as Selective Agonists of GPR120 with in Vi; conditions: Figure 1, representative GPR120 agonists; cited from earlier work
[2] = tested on: GPR40; design: method as in ref 15-26 = [15]; PMID 22519963; doi:10.1021/jm300215x; 15. Shimpukade B. Hudson B.D. Hovgaard C.K. Milligan G. Ulven T. Discovery of a potent and selective GPR120 agonist J. Med. Chem. 2012 55 4511 4515 10.1021/jm300215x 22519963 || [16]; PMID 24881566; doi:10.1016/j.bmcl.2014.05.012; 16. Sparks S.M. Chen G. Collins J.L. Danger D. Dock S.T. Jayawickreme C. Jenkinson S. Laudeman C. Leesnitzer M.A. Liang X. Identification of diarylsulfonamides as agonists of the free fatty acid recep || [17]; PMID 27570890; doi:10.1021/acs.jmedchem.6b00685; 17. Azevedo C.M. Watterson K.R. Wargent E.T. Hansen S.V. Hudson B.D. Kepczynska M.A. Dunlop J. Shimpukade B. Christiansen E. Milligan G. Non-Acidic Free Fatty Acid Receptor 4 Agonists with Antidiabeti || [18]; PMID 27815121; doi:10.1016/j.bmcl.2016.10.054; 18. Lombardo M. Bender K. London C. Kirkland M. Mane J. Pachanski M. Geissler W. Cummings J. Habulihaz B. Akiyama T.E. Discovery of benzofuran propanoic acid GPR120 agonists: From uHTS hit to mechanis || [19]; PMID 28105282; doi:10.1021/acsmedchemlett.6b00394; 19. Adams G.L. Velazquez F. Jayne C. Shah U. Miao S. Ashley E.R. Madeira M. Akiyama T.E. Di Salvo J. Suzuki T. Discovery of Chromane Propionic Acid Analogues as Selective Agonists of GPR120 with in Vi; conditions: cited from earlier work; for EC50: Figure 1, representative GPR120 agonists
[3] = tested on: hGPR40; design: method as in ref 15-26 = [15]; PMID 22519963; doi:10.1021/jm300215x; 15. Shimpukade B. Hudson B.D. Hovgaard C.K. Milligan G. Ulven T. Discovery of a potent and selective GPR120 agonist J. Med. Chem. 2012 55 4511 4515 10.1021/jm300215x 22519963 || [16]; PMID 24881566; doi:10.1016/j.bmcl.2014.05.012; 16. Sparks S.M. Chen G. Collins J.L. Danger D. Dock S.T. Jayawickreme C. Jenkinson S. Laudeman C. Leesnitzer M.A. Liang X. Identification of diarylsulfonamides as agonists of the free fatty acid recep || [17]; PMID 27570890; doi:10.1021/acs.jmedchem.6b00685; 17. Azevedo C.M. Watterson K.R. Wargent E.T. Hansen S.V. Hudson B.D. Kepczynska M.A. Dunlop J. Shimpukade B. Christiansen E. Milligan G. Non-Acidic Free Fatty Acid Receptor 4 Agonists with Antidiabeti || [18]; PMID 27815121; doi:10.1016/j.bmcl.2016.10.054; 18. Lombardo M. Bender K. London C. Kirkland M. Mane J. Pachanski M. Geissler W. Cummings J. Habulihaz B. Akiyama T.E. Discovery of benzofuran propanoic acid GPR120 agonists: From uHTS hit to mechanis || [19]; PMID 28105282; doi:10.1021/acsmedchemlett.6b00394; 19. Adams G.L. Velazquez F. Jayne C. Shah U. Miao S. Ashley E.R. Madeira M. Akiyama T.E. Di Salvo J. Suzuki T. Discovery of Chromane Propionic Acid Analogues as Selective Agonists of GPR120 with in Vi; conditions: Figure 1; cited from earlier work
[4] = tested on: human GPR120; design: method as in ref 15-27 = [15]; PMID 22519963; doi:10.1021/jm300215x; 15. Shimpukade B. Hudson B.D. Hovgaard C.K. Milligan G. Ulven T. Discovery of a potent and selective GPR120 agonist J. Med. Chem. 2012 55 4511 4515 10.1021/jm300215x 22519963 || [16]; PMID 24881566; doi:10.1016/j.bmcl.2014.05.012; 16. Sparks S.M. Chen G. Collins J.L. Danger D. Dock S.T. Jayawickreme C. Jenkinson S. Laudeman C. Leesnitzer M.A. Liang X. Identification of diarylsulfonamides as agonists of the free fatty acid recep || [17]; PMID 27570890; doi:10.1021/acs.jmedchem.6b00685; 17. Azevedo C.M. Watterson K.R. Wargent E.T. Hansen S.V. Hudson B.D. Kepczynska M.A. Dunlop J. Shimpukade B. Christiansen E. Milligan G. Non-Acidic Free Fatty Acid Receptor 4 Agonists with Antidiabeti || [18]; PMID 27815121; doi:10.1016/j.bmcl.2016.10.054; 18. Lombardo M. Bender K. London C. Kirkland M. Mane J. Pachanski M. Geissler W. Cummings J. Habulihaz B. Akiyama T.E. Discovery of benzofuran propanoic acid GPR120 agonists: From uHTS hit to mechanis || [19]; PMID 28105282; doi:10.1021/acsmedchemlett.6b00394; 19. Adams G.L. Velazquez F. Jayne C. Shah U. Miao S. Ashley E.R. Madeira M. Akiyama T.E. Di Salvo J. Suzuki T. Discovery of Chromane Propionic Acid Analogues as Selective Agonists of GPR120 with in Vi; conditions: cited from earlier work

Compound: Cc1ccc(-n2nc(C)c3cnc(-c4ccc([C@H]5C[C@@H]5C(=O)O)cc4)cc32)nc1 [Compound 3]
- EC50 [1]: 740 nM
- EC50 [2]: > 100000 nM

Compound: CO[C@H]1C[C@H](Oc2cc(F)c(F)c(-c3ccc4c(c3)CC[C@H](CCC(=O)O)O4)c2)C1 [Compound 4]
- EC50 [1]: 35 nM
- EC50 [2]: > 10000 nM

Compound: O=S1(=O)c2ccccc2CN1c1cc(F)cc(Oc2ccccn2)c1 [Compound 5]
- EC50 [1]: 123 nM
- GPR40 activity ([2]; at 100 μM, Figure 1): Inactive

Compound: CO[C@H]1C[C@H](Oc2cc(F)c(F)c(-c3c(F)cc(OCCCC(=O)O)cc3F)c2)C1 [Compound 6]
- EC50 [3]: > 100000 nM
- EC50 [4]: 93 nM

Compound: O=C(O)CCc1cc(F)c(OCc2c(-c3ccc(Cl)cc3F)nsc2C(F)(F)F)c(F)c1 [Compound 7]
- EC50 [1]: 42 nM
- EC50 [2]: > 5000 nM

Compound: Cc1ccc(-c2ccc(F)cc2COc2ccc(CC3SC(=O)NC3=O)c(Cl)c2)cc1 (stereo not drawn) [Compound 8]
- EC50 [1]: 76 nM
- EC50 [2]: 79000 nM
